From ChEMBL document CHEMBL1629549, “Effects of minocycline and valproic acid coadministration on atazanavir plasma concentrations in human immunodeficiency virus-infected adults receiving atazanavir-ritonavir” (Antimicrob Agents Chemother, 2008) come the findings set out here.

What all share (assay type): ADME, organism-based
Data set [1] is described as follows: Cmax in HIV-infected patient at 300 mg, qd co-administered with 100 mg minocycline and 250 mg valporic acid, bid for 15 days. Conditions: human, in vivo. Set-up: dose 300 mg.
Data set [2] is described as follows: AUC (0 to 24 hrs) in HIV-infected patient at 300 mg, qd co-administered with 100 mg minocycline, bid for 15 days. Conditions: human, plasma. Also noted: dose 300 mg, time < 24 hr.
Data set [3] can be described thus: Cmax in HIV-infected patient at 300 mg, qd. Also noted: dose 300 mg. Conditions: human, in vivo.
A short description of data set [4]: Half life in HIV-infected patient at 300 mg, qd co-administered with 100 mg minocycline, bid for 15 days. As to conditions: human, in vivo.
The nature of data set [5]: Half life in HIV-infected patient at 300 mg, qd. Conditions: human, in vivo.
Data set [6] can be described thus: Cmax in HIV-infected patient at 300 mg, qd co-administered with 100 mg minocycline, bid for 15 days. Also noted: dose 300 mg. As to conditions: human, in vivo.
Data set [7] is described as follows: AUC (0 to 24 hrs) in HIV-infected patient at 300 mg, qd co-administered with 100 mg minocycline and 250 mg valporic acid, bid for 15 days. Set-up: time < 24 hr, dose 300 mg. As to conditions: human, plasma.
The nature of data set [8]: AUC (0 to 24 hrs) in HIV-infected patient at 300 mg, qd. Also noted: time < 24 hr, dose 300 mg. As to conditions: human, plasma.
Data set [9] can be described thus: Half life in HIV-infected patient at 300 mg, qd co-administered with 100 mg minocycline and 250 mg valporic acid, bid for 15 days. As to conditions: human, in vivo.
Data set [10] in a line: AUC (0 to 24 hrs) in HIV-infected patient at 100 mg, qd. Set-up: dose 100 mg, time < 24 hr. Conditions: human, plasma.
Data set [11] can be described thus: Cmax in HIV-infected patient at 100 mg, qd co-administered with 100 mg minocycline and 250 mg valporic acid, bid for 15 days. Also noted: dose 100 mg. Conditions: human, in vivo.
Data set [12] in a line: AUC (0 to 24 hrs) in HIV-infected patient at 100 mg, qd co-administered with 100 mg minocycline and 250 mg valporic acid, bid for 15 days. Also noted: dose 100 mg, time < 24 hr. As to conditions: human, plasma.
The nature of data set [13]: Cmax in HIV-infected patient at 100 mg, qd co-administered with 100 mg minocycline, bid for 15 days. Also noted: dose 100 mg. As to conditions: human, in vivo.
Data set [14] is described as follows: AUC (0 to 24 hrs) in HIV-infected patient at 100 mg, qd co-administered with 100 mg minocycline, bid for 15 days. Also noted: time < 24 hr, dose 100 mg. As to conditions: human, plasma.
Data set [15] is described as follows: Cmax in HIV-infected patient at 100 mg, qd. Set-up: dose 100 mg. Conditions: human, in vivo.
A short description of data set [16]: Half life in HIV-infected patient at 100 mg, qd co-administered with 100 mg minocycline, bid for 15 days. As to conditions: human, in vivo.
Data set [17] in a line: Half life in HIV-infected patient at 100 mg, qd co-administered with 100 mg minocycline and 250 mg valporic acid, bid for 15 days. As to conditions: human, in vivo.
A short description of data set [18]: Half life in HIV-infected patient at 100 mg, qd. As to conditions: human, in vivo.

With `COC(=O)N[C@H](C(=O)N[C@@H](Cc1ccccc1)[C@@H](O)CN(Cc1ccc(-c2ccccn2)cc1)NC(=O)[C@@H](NC(=O)OC)C(C)(C)C)C(C)(C)C` [ATAZANAVIR], the Cmax worked out at 2600 ng/mL in [1], 5130 ng/mL in data set [3] and 3400 ng/mL in [6]. For the same molecule, the AUC at 24 h in data set [2] was found to be 33100 ng·h/mL; in data set [7] it was 33500 ng·h/mL; in data set [8], 53500 ng·h/mL. For the same molecule, the half-life in data set [4] is 7.93 h; in [5] it was 11 h; in [9], 10.4 h.

Take `CC(C)c1nc(CN(C)C(=O)N[C@H](C(=O)N[C@@H](Cc2ccccc2)C[C@H](O)[C@H](Cc2ccccc2)NC(=O)OCc2cncs2)C(C)C)cs1` [RITONAVIR]: the AUC at 24 h in [10] came out at 9600 ng·h/mL; in [12], 7270 ng·h/mL; in data set [14], 8190 ng·h/mL. The figures for the Cmax in data set [11], in data set [13] and in [15] were 884 ng/mL, 990 ng/mL and 957 ng/mL, respectively. Moreover, the half-life in data set [16] was 6.64 h; in data set [17] it was 4.4 h; in data set [18], 5.4 h.

The Cmax is the maximum level reached in the sampled fluid or tissue. The AUC is concentration integrated over time. As usually defined, the half-life is the time needed for the level to fall by half in the phase considered.
